Key:
[1] = system: RSV strain A2; assay: RSV EC50 HEp-2 cytopathic cell protection assay; type: cell-based; conditions: human respiratory syncytial virus, 96 h; HEp-2 cells, RSV strain A2, 4 days, Cell TiterGlo; read-out: RSV EC50 HEp2
[2] = system: MERS-CoV; assay: microbe, parasite or virus in culture; type: cell-based; conditions: Middle East respiratory syndrome-related coronavirus, Vero 76, 72 h, read-out: MERS CoV EC50
[3] = HEp-2 CC50 cytotoxicity; type: cell-based; conditions: human; HEp-2 cells, 4-5 days, CellTiter Glo; read-out: HEp2 CC50
Description: (§1) HEp-2 (1.5×10^3 cells/well) or MT4 (2×10^3 cells/well) cells were plated in 384-well plates and incubated with the appropriate medium containing 3-fold serially diluted compound ranging from 15 nM to 100,000 nM. Cells were cultured for 4-5 days at 37° C. Following the incubation, the cells were allowed to equilibrate to 25° C., and cell viability was determined by adding CellTiter Glo viability reagent. The mixture was incubated for 10 min, and the luminescence signal was quantified using an Envision plate reader. Cell lines were not authenticated and were not tested for mycoplasma as part of routine use in cytotoxicity assays.

[4] = MT4 CC50 cytotoxicity; type: cell-based; conditions: human; MT4 cells, 4-5 days, CellTiter Glo
Description: as §1

[5] = target: RSV RNP complexes (Human respiratory syncytial virus A, UniProt P28887); assay: RSV RNP Polymerase IC50 transcription assay; type: biochemical; conditions: crude RSV RNP complexes, 90 min at 30° C.
Sequence of RSV RNP complexes (P03421 whole entry): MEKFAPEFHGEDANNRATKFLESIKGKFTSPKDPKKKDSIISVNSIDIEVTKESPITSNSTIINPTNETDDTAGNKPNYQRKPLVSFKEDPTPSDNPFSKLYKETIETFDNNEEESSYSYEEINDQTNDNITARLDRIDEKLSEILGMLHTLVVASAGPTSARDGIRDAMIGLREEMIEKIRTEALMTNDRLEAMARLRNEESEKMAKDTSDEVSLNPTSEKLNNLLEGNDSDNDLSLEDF
Sequence of RSV RNP complexes (P28887 whole entry): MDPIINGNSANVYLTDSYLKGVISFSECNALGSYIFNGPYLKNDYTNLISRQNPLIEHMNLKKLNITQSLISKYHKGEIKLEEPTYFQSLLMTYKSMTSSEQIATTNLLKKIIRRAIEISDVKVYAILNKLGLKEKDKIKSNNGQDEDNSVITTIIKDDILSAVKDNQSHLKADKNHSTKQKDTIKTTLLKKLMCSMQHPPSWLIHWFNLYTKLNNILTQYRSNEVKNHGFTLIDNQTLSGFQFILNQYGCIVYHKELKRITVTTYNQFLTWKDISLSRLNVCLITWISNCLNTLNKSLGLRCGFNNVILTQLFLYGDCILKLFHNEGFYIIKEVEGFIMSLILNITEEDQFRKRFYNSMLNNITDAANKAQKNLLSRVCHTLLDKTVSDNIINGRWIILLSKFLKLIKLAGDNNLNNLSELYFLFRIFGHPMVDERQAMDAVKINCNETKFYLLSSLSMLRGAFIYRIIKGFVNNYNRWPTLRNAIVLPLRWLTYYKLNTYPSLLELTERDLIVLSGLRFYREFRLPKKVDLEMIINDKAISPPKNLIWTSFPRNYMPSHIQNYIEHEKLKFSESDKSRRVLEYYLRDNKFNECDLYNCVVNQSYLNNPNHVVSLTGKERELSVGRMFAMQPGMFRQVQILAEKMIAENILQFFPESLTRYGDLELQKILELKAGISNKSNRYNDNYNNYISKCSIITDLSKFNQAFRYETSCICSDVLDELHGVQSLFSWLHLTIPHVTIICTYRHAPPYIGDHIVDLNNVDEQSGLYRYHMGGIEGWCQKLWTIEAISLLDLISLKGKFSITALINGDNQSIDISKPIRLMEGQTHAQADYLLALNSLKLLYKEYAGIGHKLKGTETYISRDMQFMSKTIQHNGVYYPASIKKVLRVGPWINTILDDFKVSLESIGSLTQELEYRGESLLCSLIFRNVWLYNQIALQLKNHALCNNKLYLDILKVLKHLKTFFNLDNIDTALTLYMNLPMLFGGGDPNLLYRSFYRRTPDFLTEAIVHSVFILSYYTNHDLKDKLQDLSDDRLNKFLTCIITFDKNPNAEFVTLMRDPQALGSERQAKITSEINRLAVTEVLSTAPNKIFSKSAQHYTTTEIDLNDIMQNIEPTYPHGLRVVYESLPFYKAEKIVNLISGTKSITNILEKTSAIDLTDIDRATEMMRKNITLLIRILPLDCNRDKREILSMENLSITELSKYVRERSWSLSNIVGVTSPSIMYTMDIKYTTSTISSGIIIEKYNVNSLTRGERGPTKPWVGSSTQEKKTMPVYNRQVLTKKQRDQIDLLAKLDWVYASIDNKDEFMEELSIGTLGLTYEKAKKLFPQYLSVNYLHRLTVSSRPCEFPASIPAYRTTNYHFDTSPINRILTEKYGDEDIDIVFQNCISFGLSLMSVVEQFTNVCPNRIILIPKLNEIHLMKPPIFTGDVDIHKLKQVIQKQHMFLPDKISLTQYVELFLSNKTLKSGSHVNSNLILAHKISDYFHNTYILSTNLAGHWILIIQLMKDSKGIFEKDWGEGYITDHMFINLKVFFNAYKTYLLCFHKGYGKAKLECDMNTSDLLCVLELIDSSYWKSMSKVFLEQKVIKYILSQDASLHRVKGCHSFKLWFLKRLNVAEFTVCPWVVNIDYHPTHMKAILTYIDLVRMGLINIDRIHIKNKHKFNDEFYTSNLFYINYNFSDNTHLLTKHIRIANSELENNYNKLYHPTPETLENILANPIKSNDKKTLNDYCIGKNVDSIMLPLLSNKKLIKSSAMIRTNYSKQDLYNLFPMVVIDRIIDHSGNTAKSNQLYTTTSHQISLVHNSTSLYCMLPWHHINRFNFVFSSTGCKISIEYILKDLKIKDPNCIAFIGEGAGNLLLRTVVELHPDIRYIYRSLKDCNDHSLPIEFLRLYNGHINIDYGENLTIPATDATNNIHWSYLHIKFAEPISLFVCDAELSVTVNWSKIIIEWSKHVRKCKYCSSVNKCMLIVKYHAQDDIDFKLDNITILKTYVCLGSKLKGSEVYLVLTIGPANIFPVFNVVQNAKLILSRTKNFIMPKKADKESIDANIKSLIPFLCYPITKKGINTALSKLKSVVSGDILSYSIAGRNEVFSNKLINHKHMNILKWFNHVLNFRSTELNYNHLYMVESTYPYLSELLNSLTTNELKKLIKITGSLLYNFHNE
Description: Transcription reactions contained 25 μg of crude RSV RNP complexes in 30 μL of reaction buffer (50 mM TRIS-acetate [pH 8.0], 120 mM potassium acetate, 5% glycerol, 4.5 mM MgCl2, 3 mM DTT, 2 mM EGTA, 50 μg/mL BSA, 2.5 U RNasin, 20 μM ATP, 100 μM GTP, 100 μM UTP, 100 μM CTP, and 1.5 μCi [α-^32P] ATP [3,000 Ci/mmol]). The radiolabeled nucleotide used in the transcription assay was selected to match the nucleotide analog being evaluated for inhibition of RSV RNP transcription. To determine whether nucleotide analogs inhibited RSV RNP transcription, compounds were added using a 6-step serial dilution in 5-fold increments. After a 90 min incubation at 30° C., the RNP, reactions were stopped with 350 μL of Qiagen RLT lysis buffer, and the RNA was purified using a Qiagen RNeasy 96 kit. Purified RNA was denatured in RNA sample loading buffer at 65° C. for 10 min and run on a 1.2% agarose/MOPS gel containing 2M formaldehyde. The agarose gel was dried, exposed to a Storm phosphorimaging screen, and developed using a Storm phosphorimager.

[6] = target: DENV2 NS5 (Dengue virus type 2, UniProt P14340); assay: DENGUE sshRNA Polymerase IC50; type: biochemical; conditions: 100 nM DENV2 NS5, sshRNA template, 90 minutes at 30° C.
Description: A 244 nucleotide secondary structureless heteropolymeric RNA (sshRNA) with sequence 5′-(UCAG)20(UCCAAG)14(UCAG)20-3′ (SEQ ID NO: 1) is used as the template with 5′-CUG-3′ primer in the DENV2-NS5 polymerase assay. Six two-fold dilutions of compounds starting from 200 nM and no inhibitor control are plated in 96-well plates. […] Enzyme mix is added to compound dilutions and reactions initiated by the addition of a mixture containing 20 μM of three natural NTP plus 2 μM of analog:base matched competing natural NTP containing 1:100 α-^33P-NTP. After 90 minutes at 30° C., 5 μL of the reaction mixtures are spotted on DE81 anion exchange paper. Filter papers are washed three times with Na2HPO4 (125 mM, pH 9) for 5 minutes, rinsed with water and ethanol, then air-dried and exposed to phosphorimager. Synthesized RNA is quantified using Typhoon Trio Imager and Image Quant TL Software and reaction rates are calculated by linear regression using GraphPad Prism 5.0. IC50 values are calculated in Prism by non-linear regression analysis using the dose-response (variable slope) equation (four-parameter logistic equation): Y=Bottom+(Top−Bottom)/(1+10^((LogIC50−X)*HillSlope)).

[7] = target: POLRMT (Homo sapiens, UniProt O00411); assay: MTRNAP SNI single nucleotide incorporation; type: biochemical; conditions: 376 nM POLRMT, 500 μM NTP analog
Sequence of POLRMT (O00411 42-1230): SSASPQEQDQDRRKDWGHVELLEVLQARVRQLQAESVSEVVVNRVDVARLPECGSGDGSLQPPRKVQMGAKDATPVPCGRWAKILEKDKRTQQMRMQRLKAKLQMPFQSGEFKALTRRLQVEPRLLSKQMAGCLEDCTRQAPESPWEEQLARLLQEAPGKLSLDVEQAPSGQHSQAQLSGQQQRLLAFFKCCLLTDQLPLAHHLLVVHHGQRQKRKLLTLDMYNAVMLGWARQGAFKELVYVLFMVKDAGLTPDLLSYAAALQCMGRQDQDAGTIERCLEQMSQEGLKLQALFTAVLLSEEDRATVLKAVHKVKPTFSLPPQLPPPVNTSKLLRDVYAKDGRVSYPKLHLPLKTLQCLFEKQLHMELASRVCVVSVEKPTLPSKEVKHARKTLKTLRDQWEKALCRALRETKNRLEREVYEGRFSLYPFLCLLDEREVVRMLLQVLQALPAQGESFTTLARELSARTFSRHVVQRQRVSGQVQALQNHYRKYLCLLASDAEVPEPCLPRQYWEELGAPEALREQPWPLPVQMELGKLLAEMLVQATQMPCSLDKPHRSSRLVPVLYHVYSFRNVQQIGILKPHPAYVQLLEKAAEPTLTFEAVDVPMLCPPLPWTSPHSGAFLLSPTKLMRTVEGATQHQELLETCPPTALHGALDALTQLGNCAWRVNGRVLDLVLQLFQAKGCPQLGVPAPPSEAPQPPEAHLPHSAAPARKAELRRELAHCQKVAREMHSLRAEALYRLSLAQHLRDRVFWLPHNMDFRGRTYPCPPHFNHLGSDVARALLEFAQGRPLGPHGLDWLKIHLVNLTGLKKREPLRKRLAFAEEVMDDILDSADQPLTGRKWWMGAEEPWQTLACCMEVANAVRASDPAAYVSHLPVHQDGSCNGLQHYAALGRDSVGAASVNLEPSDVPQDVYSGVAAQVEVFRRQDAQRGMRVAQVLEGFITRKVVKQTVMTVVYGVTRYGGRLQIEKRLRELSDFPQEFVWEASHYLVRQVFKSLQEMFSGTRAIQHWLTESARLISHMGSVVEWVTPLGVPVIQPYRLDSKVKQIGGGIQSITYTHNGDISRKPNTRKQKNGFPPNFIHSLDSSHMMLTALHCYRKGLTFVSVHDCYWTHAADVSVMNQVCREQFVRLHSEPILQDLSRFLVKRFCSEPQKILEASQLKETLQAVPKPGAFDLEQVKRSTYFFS
Description: A mixture of MTCN buffer (50 mM MES, 25 mM Tris-HCl, 25 mM CAPS, and 50 mM NaCl, pH 7.5), 200 nM 5′-32P-R12/D18, 10 mM MgCl2, 1 mM DTT, and 376 nM POLRMT was preincubated at 30° C. for 1 min. The reaction was started by addition of 500 μM (final) natural NTP or NTP analogs. At selected time points, the reaction mixture was removed and quenched with gel loading buffer containing 100 mM EDTA, 80% formamide, and bromophenol blue, and heated at 65° C. for 5 min. The samples were run on a 20% polyacrylamide gel (8 M urea), and the product formation was quantified using Typhoon Trio Imager and Image Quant TL Software (GE Healthcare, Piscataway, NJ). The rate of single nucleotide incorporation by mt RNA pol was calculated by fitting the product formation using the single exponential equation: [R13]=A(1−e−kt), where [R13] represents the amount (in nM) of the elongated product formed, t represents the reaction time, k represents the observed rate, and A represents the amplitude of the exponential.

[8] = system: Dengue serotype 2 New Guinea C (NGC) strain; assay: DENV EC50 Huh7 qPCR assay; type: cell-based; conditions: Dengue virus, Huh-7, Huh7 cells, DENV2 NGC, MOI 0.1, 48 hours
Description: Huh7 (Human hepatocarcinoma 7) cells were maintained in 10% FCS-containing DMEM complete media. On the day of the assay, cells were trypsinized (0.1% Trypsin-EDTA), washed and infected for 2 hours in serum-free DMEM with Dengue serotype 2 New Guinea C (NGC) strain at MOI=0.1 with gentle agitation at 37° C. After 2 hours, cells were washed with serum-free media and suspended in 10% FCS-containing DMEM (Gibco, supplemented with sodium pyruvate, NEAA, Penicillin-Streptomycin). 10^5 cells were plated in triplicate in 96-well plates with compounds dispensed at graded doses (Hewlett-Packard D300 Digital Dispenser). All wells were normalized to 0.25% DMSO. At 48 hours, cells were washed with 1×PBS and all supernatants removed. Total RNA was extracted using RNEasy 96 plates (Qiagen) and used to generate first-strand cDNA using XLT cDNA 5× Supermix (QuantaBio). cDNA was used as a template in a Taqman qPCR duplex reaction specific to DENV2 viral and GAPDH gene expression. EC50 values were determined using Prism Graphpad software, with normalization to a positive control and no compound negative control wells.

[9] = system: SARS-CoV2-Nluc viruses; assay: microbe, parasite or virus in culture; type: cell-based, SARS-CoV-2; conditions: Severe acute respiratory syndrome coronavirus 2, A549, 48 h
[10] = Huh7 CC50 cytotoxicity; type: cell-based; conditions: human, Huh7 cells, CellTiter-Glo
Description: Human hepatocarcinoma 7 (Huh7) cells were maintained in 10% FCS-containing complete DMEM. On day of assay, cells were trypsinized with 0.1% Trypsin-EDTA, washed and cultured in triplicate at 1-2×10^4 cells/well in 96-well plates with compounds dispensed at graded doses (Hewlett-Packard D300 Digital Dispenser). All wells were normalized to 0.25% DMSO. After 48 h, CellTiter-Gio (Promega) was added and incubated for 10 minutes at room temp before reading on a luminometer. % viability curves were calculated against no compound and no cell control wells. CC50 values (compound concentration for reducing 50% of luminescence signal as a measure of cell viability) were determined using Prism Graphpad software.

[11] = A549-hACE2 CC50 cytotoxicity; type: cell-based; conditions: human, A549-hACE2 cells, CellTiter-Glo
Description: The cytotoxicity of compounds was determined in A549-hACE2 cells in the following manner. Compounds (200 nL) were spotted onto 384-well Grenier plates prior to seeding 5000 A549-hACE2 cells/well in a volume of 40 μL culture medium. The plates were incubated at 37° C. for 48 hours with 5% CO2. On day 2, 40 μL of CellTiter-Glo (Promega) was added and mixed 5 times. Plates were read for luminescence on an Envision (PerkinElmer) and the CC50 values were calculated using a nonlinear regression model (four parameters).

[12] = system: Zika virus strain MR766; assay: Zika EC50 Huh7 XTT assay; conditions: Huh-7, read-out: Zika EC50 Huh7

N#C[C@@]1(c2csc3c(N)ncnc23)O[C@H](CO)[C@@H](O)[C@H]1O [Compound C1, (2R,3R,4S,5R)-2-(4-aminothieno[3,2-d]pyrimidin-7-yl)-3,4-dihydroxy-5-(hydroxymethyl)tetrahydrofuran-2-carbonitrile]
EC50 [1]: 3.1 µM | EC50 [2]: 2.2 µM | CC50 [3]: > 100 µM | CC50 [4]: > 114 µM

N#C[C@@]1(c2csc3c(N)ncnc23)O[C@H](COP(=O)(O)OP(=O)(O)OP(=O)(O)O)[C@@H](O)[C@H]1O [Compound C2, ((2R,3S,4R,5R)-5-(4-aminothieno[3,2-d]pyrimidin-7-yl)-5-cyano-3,4-dihydroxytetrahydrofuran-2-yl)methyl tetrahydrogen triphosphate]
IC50 [5]: 2.91 µM | IC50 [6]: 8.96 µM | MTRNAP SNI (% incorporation) [7]: 0.61 % incorporation

CCC(CC)COC(=O)[C@H](C)NP(=O)(OC[C@H]1O[C@@](C#N)(c2csc3c(N)ncnc23)[C@H](O)[C@@H]1O)Oc1ccccc1 (stereo partly drawn) [Compound C3, 2-ethylbutyl ((((2R,3S,4R,5R)-5-(4-aminothieno[3,2-d]pyrimidin-7-yl)-5-cyano-3,4-dihydroxytetrahydrofuran-2-yl)methoxy)(phenoxy)phosphoryl)-L-alaninate]
EC50 [1]: 0.435 µM | EC50 [8]: 1.85 µM | EC50 [9]: 1.19 µM | CC50 [3]: > 37.2 µM | CC50 [4]: 19 µM | CC50 at 48 h [10]: > 25 µM | CC50 at 48 h [11]: > 50 µM | EC50 [12]: 6.94 µM

CC(C)(C)C(=O)SCCOP(=O)(OCCSC(=O)C(C)(C)C)OC[C@H]1O[C@@](C#N)(c2csc3c(N)ncnc23)[C@H](O)[C@@H]1O [Compound C4]
EC50 [1]: 2.7 µM | CC50 [3]: > 50 µM | CC50 [4]: 11.1 µM

Reference: patent US20250109157A1, “COMPOUNDS AND METHODS FOR TREATMENT OF VIRAL INFECTIONS” (Gilead Sciences, Inc., priority 2023, published 2025)
